The supplement of paper PMC11061612

Legend:
[1] = system: DU-145 (Prostate Carcinoma); experiment: combination Emax (second highest fraction inhibited in the dose matrix, 72 h); higher = more inhibition; extreme values may be limits of the assay
Procedure, shortened: (§1)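 After 24 hours at 37°C and 5% CO2 in 1536-well plates, cells in DMEM/F12 or RPMI plus 10% FBS received two-drug dose matrices for 72 hours. Viability came from CellTiter-Glo 2.0 luminescence and was scaled as inhibition, anchored at 0 by vehicle wells and at 1 by blank wells. Combination Emax is taken as the second-highest inhibition in the matrix, and Bliss excess as the observed combination effect less EA + EB − EA·EB, with EA and EB the single-agent effects.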

[2] = system: SK-LU-1 (Lung Adenocarcinoma); experiment: as above
Procedure, shortened: as §1

[3] = system: ALL-SIL (T-Lymphoblastic Leukemia); experiment: Bliss excess, mean over the matrix (fraction); higher = more synergy
Procedure, shortened: as §1

[4] = system: CADO-ES1 (Ewing's Sarcoma); experiment: as above
Procedure, shortened: as §1

[5] = system: EJM (Plasma Cell Myeloma); experiment: as above
Procedure, shortened: as §1

[6] = system: G-401 (Other Solid Carcinomas); experiment: as above
Procedure, shortened: as §1

[7] = system: KOPN-8 (B-Lymphoblastic Leukemia); experiment: as above
Procedure, shortened: as §1

[8] = system: NCI-H2122 (Lung Adenocarcinoma); experiment: as above
Procedure, shortened: as §1

[9] = system: CADO-ES1 (Ewing's Sarcoma); experiment: combination Emax (second highest fraction inhibited in the dose matrix, 72 h); higher = more inhibition; extreme values may be limits of the assay
Procedure, shortened: as §1

[10] = system: EJM (Plasma Cell Myeloma); experiment: as above
Procedure, shortened: as §1

[11] = system: G-401 (Other Solid Carcinomas); experiment: as above
Procedure, shortened: as §1

[12] = system: HCC1500 (Breast Carcinoma); experiment: as above
Procedure, shortened: as §1

[13] = system: HCC2998 (Colorectal Carcinoma); experiment: as above
Procedure, shortened: as §1

Hey (Ovarian Carcinoma) = experiment: as above
Procedure, shortened: as §1

[14] = system: KOPN-8 (B-Lymphoblastic Leukemia); experiment: as above
Procedure, shortened: as §1

[15] = system: LC-1-sq (Squamous Cell Lung Carcinoma); experiment: as above
Procedure, shortened: as §1

[16] = system: NCI-H1092 (Small Cell Lung Carcinoma); experiment: as above
Procedure, shortened: as §1

[17] = system: NCI-H1838 (Lung Adenocarcinoma); experiment: as above
Procedure, shortened: as §1

[18] = system: NCI-H650 (Lung Adenocarcinoma); experiment: as above
Procedure, shortened: as §1

[19] = system: OACM5-1 (Esophageal Adenocarcinoma); experiment: as above
Procedure, shortened: as §1
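Wherever Bliss excess, mean over the matrix is given: after 72 h of two-drug dosing.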

N#Cc1cnc(Nc2cc(NC[C@H]3CNCCO3)c(C(F)(F)F)cn2)cn1 [SRA737] + O=c1[nH]cc(F)c(=O)[nH]1 [5-Fluorouracil] (first compound max 10 µM, 7x7, partner max 20 µM)
combination Emax [1]: 0.439
combination Emax [2]: 0.369

N#Cc1cnc(Nc2cc(NC[C@H]3CNCCO3)c(C(F)(F)F)cn2)cn1 [SRA737] + CCc1c2c(nc3ccc(O)cc13)-c1cc3c(c(=O)n1C2)COC(=O)[C@]3(O)CC [SN-38] (first compound max 10 µM, 7x7, partner max 0.3 µM)
combination Emax [1]: 0.628
combination Emax [2]: 0.639

CN(CCO)CC[C@H](CSc1ccccc1)Nc1ccc(S(=O)(=O)NC(=O)c2ccc(N3CCC([C@@H](O)c4ccccc4-c4ccc(Cl)cc4)CC3)cc2)cc1S(=O)(=O)C(F)(F)F [AZD4320] + CCN(CCO)CCCOc1ccc2c(Nc3cc(CC(=O)Nc4cccc(F)c4)[nH]n3)ncnc2c1 [AZD2811] (first compound max 1 µM, 7x7, partner max 1 µM)
Bliss excess [3]: -0.0124
Bliss excess [4]: -0.0732
Bliss excess [5]: 0.0454
Bliss excess [6]: 0.0082
Bliss excess [7]: -0.0249
Bliss excess [8]: 0.0001
combination Emax [9]: 0.668
combination Emax [10]: 0.406
combination Emax [11]: 0.517
combination Emax [12]: 0.997
combination Emax [13]: 0.753
combination Emax (Hey (Ovarian Carcinoma)): 0.254
combination Emax [14]: 0.963
combination Emax [15]: 0.264
combination Emax [16]: 0.866
combination Emax [17]: 0.216
combination Emax [18]: 0.157
combination Emax [19]: 0.398
combination Emax [2]: 0.281

CN(CCO)CC[C@H](CSc1ccccc1)Nc1ccc(S(=O)(=O)NC(=O)c2ccc(N3CCC([C@@H](O)c4ccccc4-c4ccc(Cl)cc4)CC3)cc2)cc1S(=O)(=O)C(F)(F)F [AZD4320] + Nc1ccn([C@@H]2O[C@H](CO)[C@@H](O)C2(F)F)c(=O)n1 [Gemcitabine] (first compound max 1 µM, 7x7, partner max 0.3 µM)
combination Emax [1]: 0.485
combination Emax [2]: 0.248

COc1cc2c(cc1OCCCCCOc1cc3c(cc1OC)C(=O)N1C=C(C)C[C@H]1C=N3)N=C[C@@H]1CC(C)=CN1C2=O [SG3199] + O=C(c1cc(Cc2n[nH]c(=O)c3ccccc23)ccc1F)N1CCN(C(=O)C2CC2)CC1 [Olaparib] (first compound max 0.001 µM, 7x7, partner max 10 µM)
Bliss excess [3]: -0.0316
Bliss excess [4]: 0.0008
Bliss excess [5]: -0.0198
Bliss excess [6]: -0.0211
Bliss excess [7]: -0.0265
Bliss excess [8]: 0.0073
combination Emax [9]: 0.325
combination Emax [1]: 0.104
combination Emax [10]: 0
combination Emax [11]: 0.32
combination Emax [12]: 0.125
combination Emax [13]: 0.389
combination Emax (Hey (Ovarian Carcinoma)): 0.196
combination Emax [14]: 0.719
combination Emax [15]: 0.187
combination Emax [16]: 0.152
combination Emax [17]: 0.14
combination Emax [18]: 0.136
combination Emax [19]: 0.0893

Cc1cc2ncnn2cc1Nc1ncc2c(n1)n(C1CCOCC1)c(=O)n2C [AZD7648] + C[C@@H]1COCCN1C2=NC(=NC(=C2)C3(CC3)[S@](=N)(=O)C)C4=C5C=CNC5=NC=C4 [AZD6738] (first compound max 10 µM, 7x7, partner max 10 µM)
Bliss excess [3]: 0.0462
Bliss excess [4]: 0.0364
Bliss excess [5]: 0.0308
Bliss excess [6]: -0.0143
Bliss excess [7]: -0.0187
Bliss excess [8]: 0.0176
combination Emax [9]: 0.824
combination Emax [1]: 0.478
combination Emax [10]: 0.893
combination Emax [11]: 0.379
combination Emax [12]: 0.383
combination Emax [13]: 0.87
combination Emax (Hey (Ovarian Carcinoma)): 0.689
combination Emax [14]: 0.891
combination Emax [15]: 0.827
combination Emax [16]: 0.302
combination Emax [17]: 0.612
combination Emax [18]: 0.138
combination Emax [19]: 0.443

CN(CCO)CC[C@H](CSc1ccccc1)Nc1ccc(S(=O)(=O)NC(=O)c2ccc(N3CCC([C@@H](O)c4ccccc4-c4ccc(Cl)cc4)CC3)cc2)cc1S(=O)(=O)C(F)(F)F [AZD4320] + Cn1cnc2c(F)c(Nc3ccc(Br)cc3Cl)c(C(=O)NOCCO)cc21 [Selumetinib] (first compound max 1 µM, 7x7, partner max 3 µM)
Bliss excess [3]: -0.0006
Bliss excess [4]: -0.0085
Bliss excess [5]: 0.072
Bliss excess [6]: 0.0907
Bliss excess [7]: 0.0821
Bliss excess [8]: 0.0399
combination Emax [9]: 0.886
combination Emax [1]: 0.255
combination Emax [10]: 0.488
combination Emax [11]: 0.543
combination Emax [12]: 0.998
combination Emax [13]: 0.992
combination Emax (Hey (Ovarian Carcinoma)): 0.533
combination Emax [14]: 1
combination Emax [15]: 0.485
combination Emax [16]: 0.956
combination Emax [17]: 0.209
combination Emax [18]: 0.656
combination Emax [19]: 0.427

N#Cc1cnc(Nc2cc(NC[C@H]3CNCCO3)c(C(F)(F)F)cn2)cn1 [SRA737] + Nc1ccn([C@@H]2O[C@H](CO)[C@@H](O)C2(F)F)c(=O)n1 [Gemcitabine] (first compound max 10 µM, 7x7, partner max 0.3 µM)
combination Emax [1]: 0.544
combination Emax [2]: 0.389

Cc1cc2ncnn2cc1Nc1ncc2c(n1)n(C1CCOCC1)c(=O)n2C [AZD7648] + C=CCn1c(=O)c2cnc(Nc3ccc(N4CCN(C)CC4)cc3)nc2n1-c1cccc(C(C)(C)O)n1 [AZD1775] (first compound max 10 µM, partner max 1 µM)
Bliss excess [3]: 0.0133
Bliss excess [4]: 0.0512
Bliss excess [5]: -0.012
Bliss excess [6]: -0.0029
Bliss excess [7]: -0.0472
Bliss excess [8]: -0.0122
combination Emax [9]: 0.45
combination Emax [1]: 0.289
combination Emax [10]: 0.893
combination Emax [11]: 0.674
combination Emax [12]: 0.424
combination Emax [13]: 0.628
combination Emax (Hey (Ovarian Carcinoma)): 0.613
combination Emax [14]: 0.903
combination Emax [15]: 0.91
combination Emax [16]: 0.382
combination Emax [17]: 0.569
combination Emax [18]: 0.288
combination Emax [19]: 0.473

CN(CCO)CC[C@H](CSc1ccccc1)Nc1ccc(S(=O)(=O)NC(=O)c2ccc(N3CCC([C@@H](O)c4ccccc4-c4ccc(Cl)cc4)CC3)cc2)cc1S(=O)(=O)C(F)(F)F [AZD4320] + CC(=O)O[C@H]1C(=O)[C@@]2(C)[C@H]([C@H](OC(=O)c3ccccc3)[C@]3(O)C[C@H](OC(=O)[C@H](O)[C@@H](NC(=O)c4ccccc4)c4ccccc4)C(C)=C1C3(C)C)[C@]1(OC(C)=O)CO[C@@H]1C[C@@H]2O [Paclitaxel] (first compound max 1 µM, 7x7, partner max 3 µM)
combination Emax [1]: 0.818
combination Emax [2]: 0.741

Cc1cc2ncnn2cc1Nc1ncc2c(n1)n(C1CCOCC1)c(=O)n2C [AZD7648] + CN(C)CCCOc1ccc(-c2ccc3ncc4c(c3c2)n(C2CCOCC2)c(=O)n4C)cn1 [AZD0156] (first compound max 10 µM, 7x7, partner max 1 µM)
Bliss excess [3]: 0.0467
Bliss excess [4]: 0.0465
Bliss excess [5]: 0.072
Bliss excess [6]: 0.0335
Bliss excess [7]: 0.0351
Bliss excess [8]: 0.0426
combination Emax [9]: 0.38
combination Emax [1]: 0.167
combination Emax [10]: 0.225
combination Emax [11]: 0.329
combination Emax [12]: 0.299
combination Emax [13]: 0.299
combination Emax (Hey (Ovarian Carcinoma)): 0.32
combination Emax [14]: 0.311
combination Emax [15]: 0.221
combination Emax [16]: 0.0818
combination Emax [17]: 0.371
combination Emax [18]: 0.186
combination Emax [19]: 0.27

Cc1cc2ncnn2cc1Nc1ncc2c(n1)n(C1CCOCC1)c(=O)n2C [AZD7648] + CCN(CCO)CCCOc1ccc2c(Nc3cc(CC(=O)Nc4cccc(F)c4)[nH]n3)ncnc2c1 [AZD2811] (first compound max 10 µM, 7x7, partner max 1 µM)
Bliss excess [3]: -0.0416
Bliss excess [4]: 0.0236
Bliss excess [5]: 0.0417
Bliss excess [6]: -0.0176
Bliss excess [7]: 0.0713
Bliss excess [8]: 0.0547
combination Emax [9]: 0.377
combination Emax [1]: 0.209
combination Emax [10]: 0.242
combination Emax [11]: 0.51
combination Emax [12]: 0.445
combination Emax [13]: 0.191
combination Emax (Hey (Ovarian Carcinoma)): 0.41
combination Emax [14]: 0.58
combination Emax [15]: 0.325
combination Emax [16]: 0.182
combination Emax [17]: 0.506
combination Emax [18]: 0.14
combination Emax [19]: 0.293

Cc1cc2ncnn2cc1Nc1ncc2c(n1)n(C1CCOCC1)c(=O)n2C [AZD7648] + COc1cc([C@@H]2c3cc4c(cc3[C@@H](O[C@@H]3O[C@@H]5CO[C@@H](C)O[C@H]5[C@H](O)[C@H]3O)[C@H]3COC(=O)[C@H]23)OCO4)cc(OC)c1O [Etoposide] (first compound max 10 µM, 7x7, partner max 10 µM)
combination Emax [1]: 0.441
combination Emax [2]: 0.47

N#Cc1cnc(Nc2cc(NC[C@H]3CNCCO3)c(C(F)(F)F)cn2)cn1 [SRA737] + C=CCn1c(=O)c2cnc(Nc3ccc(N4CCN(C)CC4)cc3)nc2n1-c1cccc(C(C)(C)O)n1 [AZD1775] (first compound max 10 µM, partner max 1 µM)
combination Emax [1]: 0.263
combination Emax [2]: 0.442

CN(CCO)CC[C@H](CSc1ccccc1)Nc1ccc(S(=O)(=O)NC(=O)c2ccc(N3CCC([C@@H](O)c4ccccc4-c4ccc(Cl)cc4)CC3)cc2)cc1S(=O)(=O)C(F)(F)F [AZD4320] + C[C@@H](Nc1cc(F)cc(F)c1)c1cc(C(=O)N(C)C)cc2c(=O)cc(N3CCOCC3)oc12 [AZD8186] (first compound max 1 µM, 7x7, partner max 3 µM)
Bliss excess [3]: 0.0208
Bliss excess [4]: -0.0003
Bliss excess [5]: 0.0837
Bliss excess [6]: -0.101
Bliss excess [7]: 0.0392
Bliss excess [8]: 0
combination Emax [9]: 0.919
combination Emax [1]: 0.227
combination Emax [10]: 0.511
combination Emax [11]: 0.661
combination Emax [12]: 0.992
combination Emax [13]: 0.884
combination Emax (Hey (Ovarian Carcinoma)): 0.373
combination Emax [14]: 1
combination Emax [15]: 0.336
combination Emax [16]: 0.938
combination Emax [17]: 0.258
combination Emax [18]: 0.474
combination Emax [19]: 0.404
